# Measurements taken from ChEMBL document CHEMBL1151146, “Starfish Saponins, Part 43. Structures of Two New Sulfated Steroidal Fucofuranosides (Imbricatosides A and B) and Six New Polyhydroxysteroids from the Starfish Dermasterias imbricata” (J Nat Prod, 1990).
# The source made the active and inactive calls. The rule behind the calls is not given here.
# Experiments:
# Cladosporium cucumerinum [1] = assay: Antimicrobial activity against Cladosporium cucumerinum at 5 ug by TLC-based direct bioautography; assay type: functional, organism-based
# Cladosporium cucumerinum [2] = assay: Antimicrobial activity against Cladosporium cucumerinum at 3 ug by TLC-based direct bioautography; assay type: functional, organism-based
# Cladosporium cucumerinum [3] = assay: Antimicrobial activity against Cladosporium cucumerinum at <1 ug by TLC-based direct bioautography; assay type: functional, organism-based
# [4] = Inhibition of cell division of fertilized sea urchin eggs; parameters: species or system Egg; conditions: echinoidea
smiles,measurement,setting,value
C[C@H](CO)C/C=C/[C@@H](C)[C@H]1C[C@@H](O)[C@@H]2[C@]1(C)CC[C@@H]1[C@@]3(C)CC[C@H](O)C[C@@H]3[C@@H](O)C[C@]12O,Activity,Cladosporium cucumerinum [1],Active
CC(C)[C@@H](O)CC[C@@H](C)[C@H]1C[C@@H](O)[C@@H]2[C@]1(C)CC[C@@H]1[C@@]3(C)CC[C@H](O)C[C@@H]3[C@@H](O)C[C@]12O,Activity,Cladosporium cucumerinum [2],Active
CC(C)[C@@H](O)/C=C/[C@@H](C)[C@H]1C[C@@H](O)[C@@H]2[C@]1(C)CC[C@@H]1[C@@]3(C)CC[C@H](O)C[C@@H]3[C@@H](O)C[C@]12O,Activity,Cladosporium cucumerinum [3],Active
same,Activity,[4],Active
